Like-named read-outs stand apart in the source and are kept apart here.
How the values were obtained:
[1] = Mouse PK study (IV and PO), plasma parent compound and psilocin by LC-MS/MS; assay type: in vivo; conditions: male, C57Bl/6, mouse, plasma; for AUC(0-t) / Cmax / Tmax / AUC(0-inf) / half-life / MRT inf: po, C(I) in plasma; for AUC(0-t): read-out: AUC0-tlast; for Cmax: read-out: Cmax; for Tmax: read-out: tmax; for AUC(0-inf): read-out: AUC0-inf; for half-life: read-out: Apparent t1/2 (converted); for MRT inf: read-out: MRT0-inf
Description: Briefly, the procedure was as follows. […] 19, 2022.

[2] = target: T1, 5-HT1A receptor (Homo sapiens, UniProt P08908); experiment: cAMP-Glo assay in +5-HT1A vs −5-HT1A CHO-K1 cells; assay type: cell-based; conditions: cAMP assay with 4 mM forskolin
T1 construct: host or cells: CHO-K1 (co-expressing Ga15)
T1 sequence (P08908 1-422): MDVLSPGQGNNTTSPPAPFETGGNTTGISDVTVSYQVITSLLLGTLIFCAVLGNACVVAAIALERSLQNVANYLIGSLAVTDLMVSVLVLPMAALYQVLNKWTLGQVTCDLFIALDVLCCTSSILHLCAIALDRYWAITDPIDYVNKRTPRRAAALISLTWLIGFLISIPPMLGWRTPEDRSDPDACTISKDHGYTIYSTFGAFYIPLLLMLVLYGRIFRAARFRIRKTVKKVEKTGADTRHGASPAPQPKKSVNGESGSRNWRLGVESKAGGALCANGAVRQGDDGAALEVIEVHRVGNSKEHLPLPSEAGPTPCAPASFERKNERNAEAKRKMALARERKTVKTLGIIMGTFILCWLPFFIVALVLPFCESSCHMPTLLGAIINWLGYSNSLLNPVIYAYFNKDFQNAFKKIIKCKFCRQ

[3] = target: T2, ADRA2A (Homo sapiens, UniProt P08913); experiment: EFC-based cAMP secondary messenger assay, agonist mode; assay type: cell-based
T2 sequence (P08913 1-465): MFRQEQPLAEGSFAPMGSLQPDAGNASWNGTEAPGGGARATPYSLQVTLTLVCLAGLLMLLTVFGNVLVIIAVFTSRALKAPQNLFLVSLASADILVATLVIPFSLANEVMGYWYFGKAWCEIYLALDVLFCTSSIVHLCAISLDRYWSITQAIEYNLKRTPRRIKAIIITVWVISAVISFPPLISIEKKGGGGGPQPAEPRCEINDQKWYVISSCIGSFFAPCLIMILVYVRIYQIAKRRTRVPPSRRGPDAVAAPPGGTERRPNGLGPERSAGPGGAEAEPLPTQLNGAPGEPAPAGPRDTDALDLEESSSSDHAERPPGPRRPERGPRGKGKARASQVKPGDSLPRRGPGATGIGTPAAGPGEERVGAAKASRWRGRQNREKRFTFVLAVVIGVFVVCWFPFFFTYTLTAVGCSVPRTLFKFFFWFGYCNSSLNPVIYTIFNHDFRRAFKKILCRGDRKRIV

[4] = target: OPRD1 (Homo sapiens, UniProt P41143); experiment: as above; assay type: cell-based
OPRD1, sequence (P41143 whole entry): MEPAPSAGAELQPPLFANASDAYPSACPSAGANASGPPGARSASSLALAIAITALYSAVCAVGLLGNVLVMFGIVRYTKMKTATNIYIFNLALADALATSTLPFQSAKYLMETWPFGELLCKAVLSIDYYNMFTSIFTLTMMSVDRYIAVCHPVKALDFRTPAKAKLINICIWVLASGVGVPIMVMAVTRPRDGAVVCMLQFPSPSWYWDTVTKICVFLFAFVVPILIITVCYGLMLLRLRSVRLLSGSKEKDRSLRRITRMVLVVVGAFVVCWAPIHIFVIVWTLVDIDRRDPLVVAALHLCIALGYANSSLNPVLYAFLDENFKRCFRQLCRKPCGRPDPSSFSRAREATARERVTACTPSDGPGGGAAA

[5] = target: T3, HTR1A (5-HT1A) (Homo sapiens, UniProt P08908); experiment: as above; assay type: cell-based
T3 sequence (P08908 1-422): T1 sequence (P08908 1-422)

[6] = oral, 1 mg/kg, 1 mg/kg oral C(I), mean (n = 2), read-out: Plasma concentration of C(I)
[7] = oral, 1 mg/kg, 1 mg/kg oral C(I), per animal, BLQ <0.5 ng/mL, read-out: Plasma concentration of C(I)
[8] = oral, 3 mg/kg, 3 mg/kg oral C(I), Mean ± SD, read-out: Plasma concentration of C(I)
[9] = oral, 3 mg/kg, 3 mg/kg oral C(I), per animal, BLQ <0.5 ng/mL, read-out: Plasma concentration of C(I)
[10] = oral, 10 mg/kg, 10 mg/kg oral C(I), Mean ± SD, read-out: Plasma concentration of C(I)
[11] = oral, 10 mg/kg, 10 mg/kg oral C(I), per animal, BLQ <0.5 ng/mL, read-out: Plasma concentration of C(I)
[12] = 1 mg/kg, 1 mg/kg oral C(I), Mean ± SD
[13] = 3 mg/kg, 3 mg/kg oral C(I), Mean ± SD
[14] = 3 mg/kg, 3 mg/kg oral C(I), mean (n = 1)
[15] = 3 mg/kg, 3 mg/kg oral C(I), per animal
[16] = 10 mg/kg, 10 mg/kg oral C(I), Mean ± SD
[17] = 10 mg/kg, 10 mg/kg oral C(I), mean (n = 2)
[18] = 10 mg/kg, 10 mg/kg oral C(I), per animal

Structure (SMILES): CN(C)CCc1c[nH]c2cccc(OC(=O)c3ccc(Br)cc3)c12 [C(I)]
- concentration at 1 h [1, 6]: 0.898 ng/mL
- concentration at 1 h [1, 7]: 0.775 ng/mL
- concentration at 2 h [1, 6]: 0.537 ng/mL
- concentration at 2 h [1, 7]: 0.474 ng/mL
- concentration at 4 h ([1]; oral, 1 mg/kg, 1 mg/kg oral C(I), mean (n = 1), read-out: Plasma concentration of C(I)): 0.352 ng/mL
- concentration at 4 h [1, 7]: 0.352 ng/mL
- concentration at 0.25 h [1, 8]: 2.03 ± 0.37 ng/mL
- concentration at 0.25 h [1, 9]: 1.62 ng/mL
- concentration at 0.5 h [1, 8]: 2.03 ± 0.112 ng/mL
- concentration at 0.5 h [1, 9]: 1.95 ng/mL
- concentration at 1 h [1, 8]: 1.54 ± 0.206 ng/mL
- concentration at 1 h [1, 9]: 1.74 ng/mL
- concentration at 2 h [1, 8]: 0.786 ± 0.127 ng/mL
- concentration at 2 h [1, 9]: 0.932 ng/mL
- concentration at 4 h [1, 8]: 0.907 ± 0.357 ng/mL
- concentration at 6 h [1, 8]: 0.31 ± 0.0605 ng/mL
- concentration at 6 h [1, 9]: 0.371 ng/mL
- concentration at 0.25 h [1, 10]: 5.67 ± 1.77 ng/mL
- concentration at 0.25 h [1, 11]: 7.2 ng/mL
- concentration at 0.5 h [1, 10]: 8.14 ± 2.42 ng/mL
- concentration at 0.5 h [1, 11]: 6.41 ng/mL
- concentration at 1 h [1, 10]: 5.51 ± 1.85 ng/mL
- concentration at 1 h [1, 11]: 3.79 ng/mL
- concentration at 2 h [1, 10]: 2.59 ± 1.17 ng/mL
- concentration at 4 h [1, 10]: 2.26 ± 0.673 ng/mL
- concentration at 4 h [1, 11]: 1.71 ng/mL
- concentration at 6 h [1, 10]: 0.89 ± 0.265 ng/mL
- concentration at 6 h [1, 11]: 0.83 ng/mL
- concentration at 8 h ([1]; oral, 10 mg/kg, 10 mg/kg oral C(I), 8 h, Mean ± SD, read-out: Plasma concentration of C(I)): 0.545 ± 0.481 ng/mL
- AUC(0-t) [1, 12]: 1.34 ± 1.02 ng·h/mL
- Cmax [1, 12]: 0.877 ± 0.376 ng/mL
- Tmax [1, 12]: 0.5 h
- Tmax ([1]; 1 mg/kg, 1 mg/kg oral C(I), per animal): 0.5 h
- AUC(0-t) [1, 13]: 5.54 ± 0.33 ng·h/mL
- Cmax [1, 13]: 2.15 ± 0.195 ng/mL
- Tmax [1, 13]: 0.417 ± 0.144 h
- AUC(0-inf) [1, 14]: 6.87 ng·h/mL
- half-life [1, 14]: 3.01 h
- MRT inf [1, 14]: 4.12 h
- half-life ([1]; 3 mg/kg, 3 mg/kg oral C(I), per animal, M43 estimate may not be accurate): 3.01 h
- AUC(0-inf) [1, 15]: 6.87 ng·h/mL
- AUC(0-t) [1, 15]: 5.26 ng·h/mL
- Cmax [1, 15]: 1.95 ng/mL
- MRT inf [1, 15]: 4.12 h
- Tmax [1, 15]: 0.5 h
- AUC(0-t) [1, 16]: 18.7 ± 4.25 ng·h/mL
- Cmax [1, 16]: 8.4 ± 2.17 ng/mL
- Tmax [1, 16]: 0.417 ± 0.144 h
- AUC(0-inf) [1, 17]: 20.2 ng·h/mL
- half-life [1, 17]: 1.31 h
- MRT inf [1, 17]: 2.53 h
- AUC(0-inf) [1, 18]: 16.3 ng·h/mL
- AUC(0-t) [1, 18]: 15.8 ng·h/mL
- half-life [1, 18]: 1.45 h
- Cmax [1, 18]: 7.2 ng/mL
- MRT inf [1, 18]: 2.66 h
- Tmax [1, 18]: 0.25 h
- 5-HT1A receptor modulation, +5-HT1A vs −5-HT1A cultures [2]: mild receptor modulation at higher ligand concentrations
- EC50 [3]: > 100 µM
- EC50 [4]: > 100 µM
- EC50 [5]: > 100 µM

Reference: patent US11746087B1, “C4-carboxylic acid-substituted tryptamine derivatives and methods of using” (priority 2022, dated 2023)
